The supplement of paper PMC10627819

Columns and labels:
S. aureus DSM 20231 [1] = assay: fitness (endpoint OD595 vs no drug) (fraction); higher = more growth
Procedure, shortened: (§1)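 Volumes were 30 µl per well, or 55 µl for S. pneumoniae, in 384-well plates inoculated at OD595 0.01. Media were TSB, LB Lennox or CY at 37 °C, and OD595 was read every 30 min for 14 h with first-reading background subtraction. Fitness is the ratio of optical density at stationary-phase entry to the robust mean of no-drug controls. That ratio is capped at 1.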

B. subtilis 168 [2] = assay: as above
Procedure, shortened: as §1

S. aureus DSM 20231 [3] = assay: Bliss interaction score (quartile over a dose matrix) (fitness difference); higher = more antagonism (negative = synergy)
Procedure, shortened: (§2)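 Each plate was normalised to the robust mean of its own no-drug wells, using OD595 at entry into stationary phase, with values capped at 1. This normalised growth is the fitness value. The Bliss score is the difference between observed and product-expected fitness, with single-drug fitness inferred from the combination data and quartiles taken over technical, biological and donor/recipient replicates.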

S. pneumoniae D39V [4] = assay: as above
Procedure, shortened: as §2

B. subtilis 168 [5] = assay: as above
Procedure, shortened: as §2

S. aureus Newman [6] = assay: as above
Procedure, shortened: as §2

S. pneumoniae D39V [7] = assay: fitness (endpoint OD595 vs no drug) (fraction); higher = more growth
Procedure, shortened: as §1

S. aureus Newman [8] = assay: as above
Procedure, shortened: as §1
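For Bliss interaction score (quartile over a dose matrix) in this document: first quartile when negative (synergy) and third quartile when positive (antagonism).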

C[n+]1ccc(-c2cc[n+](C)cc2)cc1 [Paraquat] + COc1cc(Cc2cnc(N)nc2N)cc(OC)c1OC [Trimethoprim]
fitness
Conditions | first compound 1.25 µg/mL | first compound 2.5 µg/mL | first compound 5 µg/mL
B. subtilis 168 [2], partner 0.25 µg/mL | 0.683 | 0.604 | –
B. subtilis 168 [2], partner 0.5 µg/mL | 0.385 | – | 0.298
S. aureus DSM 20231 [1], partner 0.125 µg/mL | 0.715 | 0.741 | 0.68
S. aureus DSM 20231 [1], partner 0.25 µg/mL | 0.602 | 0.606 | 0.604
S. aureus DSM 20231 [1], partner 1 µg/mL | 0.0458 | 0.0312 | 0.0357

fitness, B. subtilis 168 [2], one replicate
Conditions | partner 0.1 µg/mL | partner 0.125 µg/mL | partner 0.2 µg/mL | partner 0.4 µg/mL | partner 1 µg/mL | partner 2 µg/mL
first compound 1.25 µg/mL | 0.944 | 0.737 | 0.744 | 0.526 | 0.309 | 0.332
first compound 2.5 µg/mL | 0.947 | 0.734 | 0.66 | 0.459 | 0.396 | 0.237
first compound 5 µg/mL | 0.873 | 0.626 | 0.642 | 0.358 | 0.068 | 0.0488

Conditions | Bliss interaction score
B. subtilis 168 [5] | -0.0973
S. aureus DSM 20231 [3] | 0.0513
S. aureus Newman [6] | -0.0902
S. pneumoniae D39V [4] | 0.0991

Cn1c2cccc(=O)c-2nc2ccccc21 [Pyocyanin] + COc1cc(Cc2cnc(N)nc2N)cc(OC)c1OC [Trimethoprim]
fitness, one replicate
Conditions | partner 0.1 µg/mL | partner 0.125 µg/mL | partner 0.2 µg/mL | partner 0.4 µg/mL | partner 1 µg/mL | partner 2 µg/mL
B. subtilis 168 [2], first compound 1.25 µg/mL | 0.744 | 0.7 | 0.672 | 0.502 | 0.354 | 0.3
B. subtilis 168 [2], first compound 2.5 µg/mL | 0.758 | 0.598 | 0.669 | 0.414 | 0.297 | 0.273
B. subtilis 168 [2], first compound 5 µg/mL | 0.501 | 0.563 | 0.429 | 0.242 | 0.191 | 0.211
S. aureus DSM 20231 [1], first compound 1.25 µg/mL | – | 0.659 | – | – | – | –
S. aureus DSM 20231 [1], first compound 2.5 µg/mL | – | 0.738 | – | – | – | –
S. aureus DSM 20231 [1], first compound 5 µg/mL | – | 0.577 | – | – | – | –

fitness
Conditions | first compound 1.25 µg/mL | first compound 2.5 µg/mL | first compound 5 µg/mL
B. subtilis 168 [2], partner 0.25 µg/mL | 0.653 | 0.594 | –
B. subtilis 168 [2], partner 0.5 µg/mL | 0.521 | 0.439 | 0.35
S. aureus DSM 20231 [1], partner 0.25 µg/mL | 0.553 | 0.555 | 0.5
S. aureus DSM 20231 [1], partner 0.5 µg/mL | 0.316 | 0.497 | 0.442
S. aureus DSM 20231 [1], partner 1 µg/mL | 0.0451 | 0.053 | 0.0904

Conditions | Bliss interaction score
B. subtilis 168 [5] | 0.0421
S. aureus DSM 20231 [3] | 0.163
S. aureus Newman [6] | 0.123
S. pneumoniae D39V [4] | 0.117

CN(N=O)C(=O)N[C@@H](C=O)[C@@H](O)[C@H](O)[C@H](O)CO [Streptozotocin] + CN(C)c1cc(NC(=O)CNC(C)(C)C)c(O)c2c1C[C@H]1C[C@H]3[C@H](N(C)C)C(O)=C(C(N)=O)C(=O)[C@@]3(O)C(O)=C1C2=O [Tigecycline]
fitness
Conditions | first compound 0.15 µg/mL | first compound 0.3 µg/mL | first compound 0.6 µg/mL | first compound 1.2 µg/mL | first compound 2.4 µg/mL | first compound 4.8 µg/mL
S. aureus Newman [8], partner 0.039 µg/mL | 0.829 | 0.711 | 0.555 | – | – | –
S. aureus Newman [8], partner 0.078 µg/mL | 0.837 | 0.685 | 0.504 | – | – | –
S. aureus Newman [8], partner 0.156 µg/mL | 0.904 | 0.711 | 0.511 | – | – | –
S. pneumoniae D39V [7], partner 0.65 µg/mL | – | – | – | 0.934 | 0.965 | 0.973
S. pneumoniae D39V [7], partner 1.3 µg/mL | – | – | – | 0.952 | 0.987 | 0.939
S. pneumoniae D39V [7], partner 2.6 µg/mL | – | – | – | 0.964 | 0.948 | 0.956

fitness, B. subtilis 168 [2], one replicate
Conditions | partner 0.039 µg/mL | partner 0.078 µg/mL | partner 0.125 µg/mL | partner 0.156 µg/mL | partner 0.25 µg/mL | partner 0.5 µg/mL
first compound 0.15 µg/mL | 0.936 | 0.975 | 0.958 | 0.877 | 0.892 | 0.921
first compound 0.3 µg/mL | ≥ 1 | ≥ 1 | 0.995 | 0.907 | 0.836 | 0.86
first compound 0.6 µg/mL | ≥ 1 | 0.956 | 0.961 | 0.99 | 0.83 | 0.904

Conditions | Bliss interaction score
B. subtilis 168 [5] | -0.0405
S. aureus DSM 20231 [3] | 0.0681
S. aureus Newman [6] | 0.0493
S. pneumoniae D39V [4] | 0.0675

CN(N=O)C(=O)N[C@@H](C=O)[C@@H](O)[C@H](O)[C@H](O)CO [Streptozotocin] + COc1cc(Cc2cnc(N)nc2N)cc(OC)c1OC [Trimethoprim]
fitness, one replicate
Conditions | first compound 0.15 µg/mL | first compound 0.3 µg/mL | first compound 0.6 µg/mL
B. subtilis 168 [2], partner 0.1 µg/mL | 0.903 | 0.871 | 0.9
B. subtilis 168 [2], partner 0.125 µg/mL | 0.748 | 0.728 | 0.731
B. subtilis 168 [2], partner 0.2 µg/mL | 0.758 | 0.703 | 0.805
B. subtilis 168 [2], partner 0.4 µg/mL | 0.523 | 0.536 | 0.521
S. aureus DSM 20231 [1], partner 0.125 µg/mL | 0.645 | 0.666 | 0.602

fitness
Conditions | first compound 0.15 µg/mL | first compound 0.3 µg/mL | first compound 0.6 µg/mL
B. subtilis 168 [2], partner 0.5 µg/mL | 0.51 | 0.496 | 0.501
S. aureus DSM 20231 [1], partner 0.25 µg/mL | 0.549 | 0.557 | 0.493
S. aureus DSM 20231 [1], partner 0.5 µg/mL | 0.0352 | 0.0171 | 0.0159
S. aureus DSM 20231 [1], partner 1 µg/mL | 0.0265 | 0.0265 | 0.0187

Conditions | Bliss interaction score
B. subtilis 168 [5] | 0.062
S. aureus DSM 20231 [3] | -0.0675
S. aureus Newman [6] | -0.12
S. pneumoniae D39V [4] | -0.125

Cc1cc(NS(=O)(=O)c2ccc(N)cc2)no1 [Sulfamethoxazol] + CN(C)c1cc(NC(=O)CNC(C)(C)C)c(O)c2c1C[C@H]1C[C@H]3[C@H](N(C)C)C(O)=C(C(N)=O)C(=O)[C@@]3(O)C(O)=C1C2=O [Tigecycline]
fitness
Conditions | first compound 1 µg/mL | first compound 2 µg/mL | first compound 4 µg/mL
B. subtilis 168 [2], partner 0.039 µg/mL | 0.917 | 0.92 | ≥ 1
B. subtilis 168 [2], partner 0.078 µg/mL | 0.903 | 0.921 | 0.97
B. subtilis 168 [2], partner 0.156 µg/mL | 0.911 | 0.897 | 0.982
S. aureus Newman [8], partner 0.039 µg/mL | 0.991 | 0.996 | ≥ 1
S. aureus Newman [8], partner 0.078 µg/mL | 0.982 | 0.999 | 0.966
S. aureus Newman [8], partner 0.156 µg/mL | 0.986 | 0.983 | ≥ 1
S. pneumoniae D39V [7], partner 0.65 µg/mL | 0.944 | 0.961 | 0.937
S. pneumoniae D39V [7], partner 1.3 µg/mL | 0.952 | 0.932 | 0.937
S. pneumoniae D39V [7], partner 2.6 µg/mL | 0.936 | 0.937 | 0.95

fitness, one replicate
Conditions | partner 0.039 µg/mL | partner 0.078 µg/mL | partner 0.125 µg/mL | partner 0.156 µg/mL | partner 0.25 µg/mL | partner 0.5 µg/mL
B. subtilis 168 [2], first compound 0.5 µg/mL | ≥ 1 | 0.989 | – | 0.959 | – | –
B. subtilis 168 [2], first compound 1 µg/mL | – | – | 0.963 | – | 0.923 | 0.903
B. subtilis 168 [2], first compound 2 µg/mL | – | – | 0.942 | – | 0.88 | 0.859
B. subtilis 168 [2], first compound 4 µg/mL | – | – | 0.922 | – | 0.899 | 0.925
S. aureus Newman [8], first compound 8 µg/mL | 0.856 | 0.865 | – | 0.934 | – | –

Conditions | Bliss interaction score
B. subtilis 168 [5] | 0.0319
S. aureus DSM 20231 [3] | 0.108
S. aureus Newman [6] | 0.0399
S. pneumoniae D39V [4] | 0.0567

Cc1cc(NS(=O)(=O)c2ccc(N)cc2)no1 [Sulfamethoxazol] + COc1cc(Cc2cnc(N)nc2N)cc(OC)c1OC [Trimethoprim]
fitness, one replicate
Conditions | first compound 0.5 µg/mL | first compound 1 µg/mL | first compound 2 µg/mL | first compound 4 µg/mL
B. subtilis 168 [2], partner 0.1 µg/mL | – | 0.607 | 0.473 | 0.373
B. subtilis 168 [2], partner 0.125 µg/mL | 0.481 | – | – | 0.285
B. subtilis 168 [2], partner 0.2 µg/mL | – | 0.489 | 0.374 | 0.353
B. subtilis 168 [2], partner 0.25 µg/mL | 0.389 | – | – | –
B. subtilis 168 [2], partner 0.4 µg/mL | – | 0.343 | 0.318 | 0.352
B. subtilis 168 [2], partner 0.5 µg/mL | 0.299 | – | – | –
B. subtilis 168 [2], partner 1 µg/mL | – | 0.37 | 0.245 | 0.226
B. subtilis 168 [2], partner 2 µg/mL | – | 0.323 | 0.163 | 0.109
S. aureus DSM 20231 [1], partner 0.125 µg/mL | – | 0.534 | 0.22 | 0.041

fitness
Conditions | first compound 1 µg/mL | first compound 2 µg/mL | first compound 4 µg/mL
B. subtilis 168 [2], partner 0.125 µg/mL | 0.375 | 0.305 | –
B. subtilis 168 [2], partner 0.25 µg/mL | 0.351 | 0.376 | –
B. subtilis 168 [2], partner 0.5 µg/mL | 0.35 | 0.337 | 0.288
S. aureus DSM 20231 [1], partner 0.25 µg/mL | 0.0669 | 0.0417 | 0.023
S. aureus DSM 20231 [1], partner 0.5 µg/mL | 0.015 | 0.0145 | 0.0126
S. aureus DSM 20231 [1], partner 1 µg/mL | 0.0332 | 0.0147 | 0.013

Conditions | Bliss interaction score
B. subtilis 168 [5] | -0.173
S. aureus DSM 20231 [3] | -0.481
S. aureus Newman [6] | 0.0676
S. pneumoniae D39V [4] | -0.364
